Experimental data from PubChem BioAssay (NCI).
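At the GI50, growth is halved. TGI: concentration producing complete growth inhibition.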

Columns and labels:
Assay in all cases: NCI anticancer screen, dose series, 384-well format
NCI/ADR-RES ovarian = system: NCI/ADR-RES ovarian
DU-145 prostate = system: DU-145 prostate
KM12 colon = system: KM12 colon
A549 NSCLC = system: A549 NSCLC
EKVX NSCLC = system: EKVX NSCLC
NCI-H322M lung = system: NCI-H322M lung
HCC-2998 colon = system: HCC-2998 colon
SF-539 CNS = system: SF-539 CNS
T-47D breast = system: T-47D breast
OVCAR-5 ovarian = system: OVCAR-5 ovarian
SW-620 colon = system: SW-620 colon
HCT-15 colon = system: HCT-15 colon
HCT-116 colon = system: HCT-116 colon
A498 renal = system: A498 renal
OVCAR-8 ovarian = system: OVCAR-8 ovarian
SK-OV-3 ovarian = system: SK-OV-3 ovarian
OVCAR-4 ovarian = system: OVCAR-4 ovarian
NCI-H460 NSCLC = system: NCI-H460 NSCLC
HOP-62 NSCLC = system: HOP-62 NSCLC
CAKI-1 renal = system: CAKI-1 renal
MDA-MB-468 breast = system: MDA-MB-468 breast
ACHN renal = system: ACHN renal
MDA-MB-435 melanoma = system: MDA-MB-435 melanoma
SF-268 CNS = system: SF-268 CNS
K-562 leukemia = system: K-562 leukemia
SK-MEL-28 melanoma = system: SK-MEL-28 melanoma
NCI-H226 lung = system: NCI-H226 lung
SNB-19 CNS = system: SNB-19 CNS
MCF7 breast = system: MCF7 breast
COLO 205 colon = system: COLO 205 colon
RPMI-8226 leukemia = system: RPMI-8226 leukemia
MDA-MB-231 breast = system: MDA-MB-231 breast
MOLT-4 leukemia = system: MOLT-4 leukemia
786-0 renal = system: 786-0 renal
U251 glioblastoma = system: U251 glioblastoma
CCRF-CEM leukemia = system: CCRF-CEM leukemia
SK-MEL-5 melanoma = system: SK-MEL-5 melanoma
M14 melanoma = system: M14 melanoma
UACC-62 melanoma = system: UACC-62 melanoma
NCI-H23 lung = system: NCI-H23 lung
UO-31 renal = system: UO-31 renal
TK-10 renal = system: TK-10 renal
IGROV1 ovarian = system: IGROV1 ovarian
UACC-257 melanoma = system: UACC-257 melanoma
LOX IMVI melanoma = system: LOX IMVI melanoma
BT-549 breast = system: BT-549 breast
SF-295 CNS = system: SF-295 CNS
NCI-H522 lung = system: NCI-H522 lung
RXF 393 renal = system: RXF 393 renal
SN12C renal = system: SN12C renal
HS 578T breast = system: HS 578T breast
MALME-3M melanoma = system: MALME-3M melanoma
PC-3 prostate = system: PC-3 prostate
OVCAR-3 ovarian = system: OVCAR-3 ovarian
SNB-75 CNS = system: SNB-75 CNS
HT29 colon = system: HT29 colon
HOP-92 NSCLC = system: HOP-92 NSCLC

## COc1ncc(Nc2ncc([C@@H](C)N3CCN(S(C)(=O)=O)CC3)cc2-c2nc(C)nc(N)n2)cc1F
NCI/ADR-RES ovarian
  GI50: 3.39 µM
  TGI: > 100 µM
DU-145 prostate
  GI50: 0.651 µM
  TGI: > 100 µM
KM12 colon
  GI50: 1.36 µM
  TGI: > 100 µM
A549 NSCLC
  GI50: 0.138 µM
  TGI: 11.9 µM
EKVX NSCLC
  GI50: 0.0733 µM
  TGI: 5.23 µM
NCI-H322M lung
  GI50: 0.367 µM
  TGI: 27.9 µM
HCC-2998 colon
  GI50: 1.23 µM
  TGI: 38.2 µM
SF-539 CNS
  GI50: 0.179 µM
  TGI: 4.15 µM
T-47D breast
  GI50: < 0.01 µM
  TGI: 0.0426 µM
OVCAR-5 ovarian
  GI50: 0.16 µM
  TGI: 16.8 µM
SW-620 colon
  GI50: 3.8 µM
  TGI: > 100 µM
HCT-15 colon
  GI50: 0.465 µM
  TGI: > 100 µM
HCT-116 colon
  GI50: 2.79 µM
  TGI: > 100 µM
A498 renal
  GI50: 0.0322 µM
  TGI: 0.337 µM
OVCAR-8 ovarian
  GI50: 1.44 µM
  TGI: > 100 µM
SK-OV-3 ovarian
  GI50: 0.0965 µM
  TGI: 10.4 µM
OVCAR-4 ovarian
  GI50: 2.25 µM
  TGI: > 100 µM
NCI-H460 NSCLC
  GI50: 0.0711 µM
  TGI: > 100 µM
HOP-62 NSCLC
  GI50: 1.94 µM
  TGI: 83.7 µM
CAKI-1 renal
  GI50: 0.023 µM
  TGI: 18.1 µM
MDA-MB-468 breast
  GI50: < 0.01 µM
  TGI: 0.16 µM
ACHN renal
  GI50: 0.1 µM
  TGI: > 100 µM
MDA-MB-435 melanoma
  GI50: 2.31 µM
  TGI: > 100 µM
SF-268 CNS
  GI50: < 0.01 µM
  TGI: 0.0889 µM
K-562 leukemia
  GI50: 4.54 µM
  TGI: > 100 µM
SK-MEL-28 melanoma
  GI50: 0.0896 µM
  TGI: 6.79 µM
NCI-H226 lung
  GI50: 1.3 µM
  TGI: 13.7 µM
SNB-19 CNS
  GI50: 4.73 µM
  TGI: > 100 µM
MCF7 breast
  GI50: 0.0407 µM
  TGI: 27.6 µM
COLO 205 colon
  GI50: 0.275 µM
  TGI: 67.8 µM
RPMI-8226 leukemia
  GI50: 2.8 µM
  TGI: 8.44 µM
MDA-MB-231 breast
  GI50: 2.27 µM
  TGI: > 100 µM
MOLT-4 leukemia
  GI50: 0.015 µM
  TGI: 0.12 µM
786-0 renal
  GI50: 0.076 µM
  TGI: 3.77 µM
U251 glioblastoma
  GI50: 1.01 µM
  TGI: > 100 µM
CCRF-CEM leukemia
  GI50: 0.0891 µM
  TGI: 1.55 µM
SK-MEL-5 melanoma
  GI50: 1.03 µM
  TGI: 11.9 µM
M14 melanoma
  GI50: 1.28 µM
  TGI: > 100 µM
UACC-62 melanoma
  GI50: 0.0304 µM
  TGI: 1.45 µM
NCI-H23 lung
  GI50: 1.95 µM
  TGI: > 100 µM
UO-31 renal
  GI50: 0.187 µM
  TGI: 7.21 µM
TK-10 renal
  GI50: 0.294 µM
  TGI: 7.94 µM
IGROV1 ovarian
  GI50: < 0.01 µM
  TGI: 0.0433 µM
UACC-257 melanoma
  GI50: 0.488 µM
  TGI: 60.5 µM
LOX IMVI melanoma
  GI50: 0.552 µM
  TGI: 5.65 µM
BT-549 breast
  GI50: 0.0533 µM
  TGI: 6.33 µM
SF-295 CNS
  GI50: 0.0498 µM
  TGI: 2.1 µM
NCI-H522 lung
  GI50: 1.63 µM
  TGI: 19.5 µM
RXF 393 renal
  GI50: 0.0125 µM
  TGI: 0.0763 µM
SN12C renal
  GI50: 0.0317 µM
  TGI: 8.95 µM
HS 578T breast
  GI50: 0.017 µM
  TGI: 0.333 µM
MALME-3M melanoma
  GI50: 1.04 µM
  TGI: > 100 µM
PC-3 prostate
  GI50: 0.0336 µM
  TGI: 18.6 µM
OVCAR-3 ovarian
  GI50: 0.061 µM
  TGI: 3.1 µM
SNB-75 CNS
  GI50: < 0.01 µM
  TGI: 0.0481 µM
HT29 colon
  GI50: 0.139 µM
  TGI: > 100 µM
HOP-92 NSCLC
  GI50: 0.0246 µM
  TGI: 1.22 µM
